In ChEMBL document CHEMBL1201862, “PubChem BioAssay data set” (2004):
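Briefly, cells in 96-well plates were exposed to five compound concentrations for 48 h, and endpoints were estimated by linear interpolation. GI50 = concentration required for 50% inhibition of growth.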 Calls of active or inactive are those of the source. Cut-off read from the data, not from the text of the source: active = GI50 up to about 1.1 µM and inactive = higher.

Key:
Assay in all cases: DTP human tumour cell line panel, 48 h
BT-549 = system: BT-549
RPMI-8226 = system: RPMI-8226
UACC-62 = system: UACC-62
PC-3 = system: PC-3
MDA-MB-231 = system: MDA-MB-231
UACC-257 = system: UACC-257
KM12 = system: KM12
MDA-MB-435 = system: MDA-MB-435
NCI-H226 = system: NCI-H226
TK-10 = system: TK-10
SNB-19 = system: SNB-19
RXF 393 = system: RXF 393
ACHN = system: ACHN
NCI/ADR-RES = system: NCI/ADR-RES
OVCAR-8 = system: OVCAR-8
K562 = system: K562
HT-29 = system: HT-29
U-251 = system: U-251
HCC 2998 = system: HCC 2998
SK-MEL-28 = system: SK-MEL-28

Structure (SMILES) | GI50 (BT-549) | GI50 (RPMI-8226) | GI50 (UACC-62) | GI50 (PC-3) | GI50 (MDA-MB-231) | GI50 (UACC-257) | GI50 (KM12) | GI50 (MDA-MB-435) | GI50 (NCI-H226) | GI50 (TK-10) | GI50 (SNB-19) | GI50 (RXF 393) | GI50 (ACHN) | GI50 (NCI/ADR-RES) | GI50 (OVCAR-8) | GI50 (K562) | GI50 (HT-29) | GI50 (U-251) | GI50 (HCC 2998) | GI50 (SK-MEL-28)
Cc1ccc(/N=N/C(=N/NC(=O)c2cc(Cl)ccc2O)c2ccc(N(CCC#N)CCC#N)cc2C)cc1 | 27.5 µM (inactive) | 8.36 µM (inactive) | 22.7 µM (inactive) | 24.3 µM (inactive) | 25.3 µM (inactive) | 13.2 µM (inactive) | 18.1 µM (inactive) | 34 µM (inactive) | 17.1 µM (inactive) | 21.2 µM (inactive) | 25.5 µM (inactive) | 18.2 µM (inactive) | 24.4 µM (inactive) | 38.4 µM (inactive) | 20.7 µM (inactive) | 17.1 µM (inactive) | 14.6 µM (inactive) | 18.2 µM (inactive) | 24.1 µM (inactive) | 
CNC(=O)C1CCCN1C(=O)C(Cc1c[nH]cn1)NC(=O)C1CCC(=O)N1 (stereo not drawn) | > 100 µM (inactive) | > 100 µM (inactive) | > 100 µM (inactive) | > 100 µM (inactive) | > 100 µM (inactive) |  | > 100 µM (inactive) | > 100 µM (inactive) | > 100 µM (inactive) | > 100 µM (inactive) | > 100 µM (inactive) | > 100 µM (inactive) | > 100 µM (inactive) | > 100 µM (inactive) | > 100 µM (inactive) | > 100 µM (inactive) | > 100 µM (inactive) | > 100 µM (inactive) | > 100 µM (inactive) | > 100 µM (inactive)
O=C1C(N2CCCC2)=CC(=O)c2c(O)c(N3CCCC3)c(Cl)c(O)c21 | > 10 µM (inactive) | > 10 µM (inactive) | > 10 µM (inactive) | > 10 µM (inactive) | > 10 µM (inactive) | > 10 µM (inactive) | > 10 µM (inactive) | > 10 µM (inactive) | > 10 µM (inactive) | > 10 µM (inactive) | > 10 µM (inactive) | > 10 µM (inactive) | > 10 µM (inactive) | > 10 µM (inactive) |  | > 10 µM (inactive) | > 10 µM (inactive) | > 10 µM (inactive) | > 10 µM (inactive) | > 10 µM (inactive)
Cn1cnnc1SC(F)(F)c1nc2ccccc2o1 | > 100 µM (inactive) | > 100 µM (inactive) | > 100 µM (inactive) | > 100 µM (inactive) | > 100 µM (inactive) | > 100 µM (inactive) | > 100 µM (inactive) | > 100 µM (inactive) | > 100 µM (inactive) | > 100 µM (inactive) |  | > 100 µM (inactive) | > 100 µM (inactive) | > 100 µM (inactive) | > 100 µM (inactive) | > 100 µM (inactive) | > 100 µM (inactive) | > 100 µM (inactive) | > 100 µM (inactive) | > 100 µM (inactive)
O=C1c2c(Cl)c(Cl)c(Cl)c(Cl)c2C(=O)N1CCN(c1c(Cl)ssc1=O)c1c(Cl)ssc1=O | 30.9 µM (inactive) |  | 19.3 µM (inactive) | 22.9 µM (inactive) | 36.1 µM (inactive) | 16.9 µM (inactive) | 54.8 µM (inactive) | 19.8 µM (inactive) | > 100 µM (inactive) | 18.7 µM (inactive) | > 100 µM (inactive) | 16.4 µM (inactive) | 18.2 µM (inactive) | 49.3 µM (inactive) | 21.7 µM (inactive) | 20.7 µM (inactive) | 19.5 µM (inactive) | 95.9 µM (inactive) | 21.2 µM (inactive) | 58.3 µM (inactive)
COc1cccc(-c2cc(O)c3cc(C)cnc3n2)c1 | > 100 µM (inactive) | 0.0421 µM (active) | 0.0258 µM (active) | 0.0467 µM (active) | 0.415 µM (active) | > 100 µM (inactive) | 0.0885 µM (active) | 0.0122 µM (active) | 0.0757 µM (active) |  | 0.0667 µM (active) | 0.0211 µM (active) | 0.0625 µM (active) | 0.0295 µM (active) | 0.0658 µM (active) | 0.0381 µM (active) | 0.0318 µM (active) | 0.0473 µM (active) | 1.51 µM (inactive) | 0.0787 µM (active)
CCOC(=O)C(C)(C)Oc1ccc(Cl)cc1 [CLOFIBRATE] | > 1000 µM (inactive) |  | 514 µM (inactive) | 359 µM (inactive) | > 1000 µM (inactive) | 177 µM (inactive) | 324 µM (inactive) | 601 µM (inactive) | 188 µM (inactive) | > 1000 µM (inactive) | > 1000 µM (inactive) | 160 µM (inactive) | > 1000 µM (inactive) | 285 µM (inactive) | 63.1 µM (inactive) | > 1000 µM (inactive) | 159 µM (inactive) | > 1000 µM (inactive) | 505 µM (inactive) | 489 µM (inactive)
